Source: ChEMBL document CHEMBL4177528, “Recent developments in drug discovery against the protozoal parasites Cryptosporidium and Toxoplasma” (Bioorg Med Chem Lett, 2017)

What was measured:
Toxoplasma gondii [1] = assay: Antiparasitic activity against Toxoplasma gondii after 4 days by chlorophenol red-beta-D-galactosidase based assay; assay type: functional, organism-based; conditions: 96 h
Cryptosporidium parvum = assay: Antiparasitic activity against Cryptosporidium parvum infected in human HCT8 cells incubated for 24 hrs post 3 hrs infection by Hoechst 33258 staining based epifluorescence microscopy; assay type: functional
Toxoplasma gondii [2] = assay: Antiparasitic activity against tachyzoite stage of Toxoplasma gondii RH infected in Swiss Webster mouse assessed as mouse survival for 60 days post infection; assay type: functional
Toxoplasma gondii [3] = assay: Antiparasitic activity against Toxoplasma gondii assessed as population with apicoplast loss after 4 days by Hoechst staining based microscopy; assay type: functional
Toxoplasma gondii [4] = assay: Antiparasitic activity against tachyzoite stage of Toxoplasma gondii infected in LLC-MK2 cells after 6 hrs; assay type: functional

SMILES	IC50 (Toxoplasma gondii [1]) [µM]	Survival (Toxoplasma gondii [2])	further results
O=[N+]([O-])c1cccc2ncccc12	5 to 6		
Cc1cccc(-n2ncc3c(O)nc(-n4nc(C)cc4NC(=O)c4cc5ccccc5o4)nc32)c1			Activity (Cryptosporidium parvum): 0.12 µM
Clc1ccc2ccccc2n1	5 to 6		
CCOC(=O)c1cn(C2CC2)c2cc(N3CCN(Cc4ccccc4)CC3)c(F)cc2c1=O		13 - 25%	
[O-][n+]1cccc2ccccc21	5 to 6		
FC(F)(F)c1ccc2c(NCCCN3CCN(c4cccc5nc(Cl)ccc45)CC3)ccnc2c1	0.425		Activity (Toxoplasma gondii [3]): 40 - 45%
O=C(O)c1cn(C2CC2)c2cc(N3CCN(CC45CC6CC(CC(C6)C4)C5)CC3)c(F)cc2c1=O		13 - 25%	
COc1cccc(C(=O)NC(c2ccc(C)cc2)c2cc(Cl)c3cccnc3c2O)c1 (centres undefined)			Activity (Cryptosporidium parvum): 0.054 µM
O=C1C2=C(C(=O)c3ccccc31)[C@H]1Oc3ccc(Br)cc3[C@H]1CO2			Activity (Toxoplasma gondii [4]): <1 µM
CCOC(=O)c1cn(C2CC2)c2cc(N3CCNCC3)c(F)cc2c1=O [CIPROFLOXACIN ETHYL ESTER]		13 - 25%	
O=C(O)c1cn(C2CC2)c2cc(N3CCNCC3)c(F)cc2c1=O [CIPROFLOXACIN]		13 - 25%	
Oc1cccc2cccnc12 [OXYQUINOLINE]	0.213		
c1ccc2ncccc2c1 [QUINOLINE]	5 to 6		
